Source: patent publication US9376665B2, “Method for producing intestinal cells” (National University Corporation Kumamoto University, priority 2010, dated 2016)
“Also recorded” adds a separate entry of the source.

B1: activin: recombinant human activin-A (R&D Systems) (protein, UniProt P08476 311-426, looked up)
Inhibin beta A chain: GLECDGKVNICCKKQFFVSFKDIGWNDWIIAPSGYHANYCEGECPSHIAGTSGSSLSFHSTVINHYRMRGHSPFANLKSCCVPTKLRPMSMLYYDDGQNIIKKDIQNMIVEECGCS
modifications: Inhibin beta A chain

Tests used:
[1] = test system: human ES cells; test: Test Example 4: effect of FGF2 concentration on human ES cells, proportion of Cdx2-positive cells by flow cytometry; assay type: cell-based
Procedure: Since there has been a previous report that a high concentration of FGF2 is important for differentiation of human ES cells into Cdx2-positive cells, it was examined whether or not the same results can be obtained. The final concentration of 250 ng/mL of FGF2 was used. In accordance with the method in Test Example 3, differentiation of human ES cells was carried out on gelatin-coated dishes until they differentiated into endoderm, and then (on the 7th day of cultivation), 0, 50, and 250 ng/mL of FGF2, respectively, were added thereto besides BIO (5 μM) and DAPT (10 μM), and the cells were further cultured until the 9th day or 20th day, and the proportion of Cdx2-positive cells was evaluated by flow cytometry. The flow cytometry (FACS) analysis was carried out using BD Cytofix/Cytoperm™ Kit (BD Biosciences) in accordance with a manual provided by the manufacturer.

[2] = test system: definitive endoderm cells; test: Effects of FGFs on intestinal differentiation of definitive endoderm cells (RT-PCR, Cdx2 immunohistochemistry); assay type: cell-based, mouse
Procedure: The ES cells were culture on M15 cells added with 20 ng/mL of activin and 50 ng/mL of bFGF in DMEM medium containing 10% fetal bovine sera and […] of glucose for 5 days, and were analyzed using flow cytometry for definitive endoderm. For intestinal differentiation, the ES cells were further cultured on M15 or MEF cells, in the presence of BIO and DAPT, or without BIO and DAPT but with FGFs, in media with 10% KSR at a glucose concentration of 2000 mg/mL.
256 ng/mL of FGF2 (human bFGF) (Peprotech); and
50 ng/mL of FGF4 (Peprotech), FGF5 (Sigma), FGF7 (R&D Systems), FGF8 (Cosmo Bio), FGF9 (Peprotech), FGF10 (R&D Systems) and FGF18 (Sigma), respectively.
RNA was extracted from the ES cells using TRI Reagent (Sigma) or RNeasy micro-kit (Qiagen), and then, was treated with DNase (Sigma). Three micrograms of RNA were reverse-transcribed using a MMLV reverse transcriptase (Toyobo) and oligo dT primers (Toyobo). The PCR conditions for each cycle include initial denaturation at 96° C. for one minute, and the second and subsequent cycles of denaturation at 96° C. for 30 seconds, annealing at 60° C. for 2 seconds and extension at 72° C. for 20 seconds, and the final cycle of extension at 72° C. for 7 minutes. RT-PCR products were separated by 5% non-denaturing polyacrylamide gel electrophoresis, stained with SYBR Green I (Molecular Probes), and visualized using Gel Logic 200 Imaging System (Kodak).

[3] = test system: human ES cells; test: Test Example 3: addition of various activators in human ES cells, proportion of Cdx2-positive cells by flow cytometry; assay type: cell-based; conditions: 20th day of cultivation; FGF2 50 ng/mL besides BIO (5 ηM) and DAPT (10 μM)
Procedure: With respect to human ES cells, it was examined whether or not addition of FGF2, BMP4 and/or SAG improves an efficiency of differentiation into Cdx2-positive cells in a feeder-free system.
First, for the experiment of inducing the differentiation, human ES cells were plated on gelatin-coated dishes at 69,000 cells/cm^2. The ES cells were cultured for seven days in RPMI 1640 medium (Invitrogen) supplemented with NEAA, L-Gln, PS, β-ME, 10 μg/mL of Insulin (Sigma-Aldrich), 100 ng/mL of recombinant human activin A (R&D Systems, Minneapolis, Minn.), and B27 supplement (Invitrogen). Then, the culture medium was replaced with 10% KSR supplemented with 2,000 mg/mL of glucose, BIO ([…]), DAPT (10 μM) and activators and growth factors at the concentrations as described in Test Example 2. After that, cell culturing was further continued, and the cells were separated on the 9th day and the 20th day of cultivation in the same manner as Example 1, and then, the proportion of Cdx2-positive cells was evaluated by use of flow cytometry. The flow cytometry (FACS) analysis was carried out using BD Cytofix/Cytoperm™ Kit (BD Biosciences) in accordance with a manual provided by the manufacturer.

[4] = test system: mouse ES cells; test: Test Example 2: addition of various activators, proportion of Cdx2-positive cells by flow cytometry, feeder-free; assay type: cell-based; conditions: for Cdx2-positive cells: BIO (5 μM) and DAPT (10 μM) with or without FGF2 50 ng/mL
Procedure: Therefore, next, an experiment in which the FGF signaling, the BMP signaling and the Hh signaling were activated was carried out. In view of micro-array data showing that MEF cells express FGF2 and BMP4, 50 ng/mL of FGF2 (PEPROTECH) and 25 ng/mL of BMP4 (R&D Systems) were used to activate the FGF signaling and the BMP signaling. Furthermore, as to activation of the Hh signaling, 300 nM of SAG (MERCK) (smoothend agonist; smo) was used.
For the experiment of inducing the differentiation, the induction of differentiation was carried out in a feeder-free system as described below. First, mouse ES cells were plated on a gelatin-coated dish at 6,900 cells/cm^2. The ES cells were cultured for 7 days in DMEM medium (Dulbecco's Modified Eagle Medium) (Invitrogen, Glasgow, UK) containing 4,500 mg/L of glucose, supplemented with NEAA, L-Gln, PS, β-ME, 10 μg/mL of Insulin (Sigma-Aldrich), […] of Transferin (Sigma-Aldrich), 6.7 pg/mL of Selenium (Sigma-Aldrich), 0.25% AlbuMax (Invitrogen), and 10 ng/mL of recombinant human activin A (R&D Systems, Minneapolis, Minn.), and then, the culture medium was replaced with 10% KSR containing 2,000 mg/mL of glucose, BIO (5 μM) and DAPT (10 μM) and further supplemented with the activator or growth factor. After that, cell culturing was further continued, the cells were separated on the 10th day and the 15th day of cultivation as described in Example 1, and then, the proportion of Cdx2-positive cells was evaluated by use of flow cytometry. The flow cytometry (FACS) analysis was carried out using BD Cytofix/Cytoperm™ Kit (BD Biosciences) in accordance with a manual provided by the manufacturer.

[5] = test system: khES-3 (human ES cell line); test: Intestinal differentiation of human ES cells on M15 cells; assay type: cell-based; set-up: dose or concentration left out as unconfirmed; conditions: activin for 10 days
Excerpt: Human ES cells (KhES-3) (PMID: 16707099) was those provided by Dr. N. Nakatsuji and Dr. H. Suemori (Kyoto University, Kyoto, Japan), and were used in accordance with the hES cell guidelines of the Japanese government. The undifferentiated hES cells were maintained on a feeder layer of MEF in Knockout DMEM/F12 (Invitrogen) supplemented with 20% KSR, L-Gln, NEAA and β-ME under 3% CO2. To passage the hES cells, hES cell colonies were detached from the feeder layer by treating them with 0.25% trypsin and 0.1 mg/mL of collagenase IV in PBS containing 20% KSR and 1 mM of CaCl2 at 37° C. for 5 minutes, followed by adding a culture medium thereto and gently pipetting them several times to desegregate ES cell clumps into smaller pieces (5-20 cells).
For differentiation induction, the human ES cells were pre-treated with Y27632 (Wako) for 24 hours, and then, they were plated at 50,000 cells per well in 24-well plates that had been pre-coated with M15 cells. The ES cells were dissociated with 0.25% trypsin-EDTA (Invitrogen), and cultured in Y27632 containing an ES maintenance medium for one day. One day after plating, the cells were washed by PBS, and the medium was changed to a differentiation medium. […]

Row | Molecule | proportion of Cdx2-positive cells ([1]; 9th day of cultivation, 250 ng/mL of FGF2 besides BIO (5 μM) and DAPT (10 μM)) | proportion of Cdx2 positive cells ([1]; 20th day of cultivation, 0, 50 and 250 ng/mL of FGF2 besides BIO (5 μM) and DAPT (10 μM)) | induction of Cdx2-expressing intestinal cells ([2]; FGFs added from Day 4 of the differentiation, on MEF cells, immunohistochemistry on day 12) | molecular markers for enterocytes (Ifabp, Isx), goblet cells (Tff3), Paneth cells (Lyz1) and enteroendocrine cells (Sct, Syp, Sst, Gast) ([2]; RT-PCR, day 15, BIO and DAPT, or FGF2 (256 ng/mL) only without BIO and DAPT) | proportion of Cdx2-positive cells [3] | Cdx2-positive cells ([4]; 10th day of cultivation) [%] | number of Cdx2-positive cells versus control (only BIO and DAPT) ([4]; 10th day of cultivation, FGF2 50 ng/mL or SAG 300 nM added besides BIO and DAPT) | Cdx2-positive cells ([4]; 15th day of cultivation) | efficiency of differentiation versus control (only BIO and DAPT) ([4]; 15th day of cultivation, FGF2 added besides BIO and DAPT) | differentiation of khES-3 into definitive endoderm [5]
1 | FGF2: basic fibroblast growth factor, FGF2 (human bFGF) (Peprotech) | decreased | decreased depending on the concentration of FGF2 | induced Cdx2-expressing intestinal cells | induced at much lower levels; also recorded: small in extent | decreased | 40 | significant increase | about 60% | more efficiently differentiate | 
2 | B1 |  |  |  |  |  |  |  |  |  | differentiated into definitive endoderm
